Results: US20160199497A1, “Cholesterol Ester-Depleting Nanomedicine for Non-toxic Cancer Chemotherapy” (Purdue Research Foundation, priority 2014, published 2016)

Columns and labels:
[1] = tested on: cancer cells (PC3, MIA-PaCa2, A549, HCT116) and normal cells (hVSMC, BR5); test: Cell viability of cancer and normal cells; assay type: cell-based, human; conditions: conventional chemotherapeutics, comparison
[2] = tested on: MIA PaCa-2 orthotopic tumors; test: Orthotopic mouse model of pancreatic cancer (MIA PaCa-2 luc/mCherry); assay type: in vivo
Experimental: In vivo study in orthotopic mouse model: All animal experiments were conducted following protocols approved by Purdue Animal Care and Use Committee (PACUC). NOD/scid/IL2R γ null (NSG) mice were purchased from In Vivo Therapeutics Core at Indiana University Simon Cancer Center (Indiana University, IN) under a Material Transfer Agreement with Jackson Laboratories, Inc. Orthotopic mouse model of pancreatic cancer was established following previously described protocol (Gu D, et al. (2013) Mol Cancer Ther 12(6):1038-1048.). MIA PaCa-2 cells with stable expression of luciferase and mCherry were collected and suspended at a concentration of 10×10^6 cells/ml. A total of 5×10^5 tumor cells in 50 μl medium was directly injected into the pancreas of NSG mice at 4-6 weeks old. After recovery from surgery, tumor growth was monitored by bioluminescent imaging using In Vivo Imaging System (IVIS).
In these studies, mice were randomly divided into two groups. For the treatment with avasimibe at 15 mg/kg, intraperitoneal (IP) injection was used on a daily base, starting one week after tumor cell implantation. After treated for 4 weeks, all the mice were sacrificed. Tumors and metastatic lesions in abdominal cavity, lymph nodes, liver, spleen, kidney, lung and heat were visualized with IVIS by mCherry fluorescent signal. Tumor volume and weight were measured ex vivo. Histological examination was performed to tumor and organ tissue slides after stained with Hematoxylin and eosin (H&E).
Murine paraffin-embedded slides were deparaffinized and rehydrated. Then antigens were retrieved in antigen unmasking solution (Vector Laboratories) with a 2100-Retriever (PickCell Laboratories). Samples were used to TUNEL assay (Roche, 11684817910) according to manufacturer's protocol. Fluorescent images were taken using Nikon A1R confocal microscopy under 40× objective.

[3] = tested on: GRP78, ATF4, CHOP in pancreatic cancer cells; test: Immunoblotting of ER stress markers; assay type: cell-based, human; conditions: time course
Experimental: After indicated treatments, cells were harvested and lysed in AMI lysis buffer (Active Motif) supplemented with protease and phosphatase inhibitor cocktail. Protein concentration was determined using the Bio-Rad protein assay kit. Protein extraction was subjected to immunoblotting with the antibodies against PTEN (Cell Signaling, […]), HMG CoA reductase (Biovision, 3952-100), ACAT-1 (Santa Cruz, sc-69836), GRP78 (Santa Cruz, sc-13968), ATF4 (Cell Signaling, 11815), CHOP (Cell Signaling, 2895), p-ERK1/2 (Cell Signaling, 4370S), ERK1/2 (Cell Signaling, 9102), p-Akt (Cell Signaling, […]), Akt (Cell Signaling, 4691), caveolin-1 (Cell Signaling, […]), SREBP-1 (Santa Cruz, 13551), and β-actin (Sigma, A5441). β-Actin was used as loading control for normalization.

HPDE6 = test: MTT cell viability, HPDE6; assay type: cell-based; conditions: Homo sapiens; normal cells
Experimental: (§1) Cell viability was measured by Thiazolyl Blue Tetrazolium Blue (MTT) colorimetric assay (Sigma). Cell migration and invasion assays were performed in Transwell chambers (Corning) coated with and without Matrigel (BD Bioscience) respectively. 20% FBS and 0.2 ng/ml EGF were used as chemoattractant. 12 h (migration) or 24 h (invasion) after cells were seeded on top of the membrane, penetrating cells were stained with PI and counted under confocal microscope.

[4] = Blood bioavailability / pharmacokinetics of avasimibe by LC-MS; assay type: in vivo, nude mice; conditions: nude, mouse, whole blood; oral avasimibe 15 mg/kg; read-out: area under curve (AUC) of avasimibe
Experimental: To compare the blood-bioavailability of avasimibe for oral and intravenous administrations, avasimibe solution in PBS (15 mg/kg) was orally administered to nude mice without tumors (n=3) using a plastic feeding tube (20 GA×38 mm). Avasimin solution in PBS (75 mg/kg, containing 15 mg/kg avasimibe) was intravenously administered to nude mice without tumor (n=3) through the tail vein. Blood samples (2 μl) were collected from the dorsal pedal vein at different time points post administration. […] To extract avasimibe, acetone (6 μl) was added to the blood solution, vortexed, and then the solution was centrifuged (×5000 g, 5 min). The supernatant (6 μl) was collected and dried under vacuum. The sample was stored at −20° C., and dissolved in 50 μl of methanol just before analysis. A linear standard curve of avasimibe in blood ranging of 0.01-100 μg/ml was created using the same extraction method described above. avasimibe concentration was determined using a liquid chromatography-mass spectroscopy (LC-MS) (Agilent 1200 HPLC-Agilent 6460 QQQ mass spec). […]
Based on this model, pharmacokinetic values for avasimibe delivered by intravenous administration of avasimin were determined including the initial volume of distribution, […]
The terminal and distribution half-times for two-compartment model were measured using the equations above, described in a previous report.

pancreatic cancer cells [5] = test: CE level in pancreatic cancer cells (Raman spectromicroscopy, ESI-MS); assay type: cell-based, human
Experimental: Label-free Raman spectromicroscopy, including stimulated Raman scattering (SRS) microscopy, coherent anti-stokes Raman scattering (CARS) microscopy and spontaneous Raman spectroscopy, was performed on unstained tissue slices (˜15 μm) or cells without any processing or labeling. SRS imaging was conducted using a femtosecond laser source, with the laser beating frequency tuned to the C-H stretching vibration mode at 2845 cm−1. The typical acquisition time for a 512×512 pixel image was 1.12 second.
CARS imaging and confocal Raman spectral analysis from individual LDs were performed on a single platform as described previously (40). A 5-picosecond laser at 707 nm was used as excitation beam for Raman spectral acquisition. Acquisition time for a typical spectra from individual LDs was 20 s, with the beam power maintained around 15 mW at sample. For each specimen, at least 10 spectra from individual LDs in different locations or cells were obtained.
LD amount was quantified based on the SRS images using software ImageJ. […] Area fraction of LDs out of total area of tissues or cells were measured to quantize the LD amount. […] The percentage of CE out of total lipids was used to quantize the CE level.
Lipids were extracted as described above. Cells with indicated treatments were collected and counted. […]

pancreatic cancer cells [6] = test: Biochemical assay of free cholesterol in cells; assay type: cell-based, human; conditions: low to high concentration
Experimental: Lipid extraction from cell pellets and tissues was performed according to Folch et al (Folch J et al. (1957) J Biol Chem 226(1):497-509.). Cells with indicated treatments were collected and counted. CE and free cholesterol were measured according to the manufacturer's protocol (Amplex Red Cholesterol kit from Molecular Probes), and finally normalized by cell number.

MIA PaCa-2 cells = test: Annexin V/propidium iodide staining and cell cycle analysis by flow cytometry; assay type: cell-based, human
[7] = biological target: HSA (human serum albumin) (Homo sapiens, UniProt P02768); test: Avasimibe binding to HSA: circular dichroism, Trp-214 fluorescence quenching, warfarin competitive binding
Excerpt: A quartz cell of 1 mm path length was used for spectrum measurement (190-260 nm). The spectra were collected with a data pitch of 1 nm, a scan speed of 10 nm per minute, and bandwidth of 1 nm. Each spectrum was the average of three scans.

PANC-1 = test: MTT cell viability, PANC-1; assay type: cell-based, human
Experimental: as §1

[8] = Tissue distribution of avasimibe by LC-MS, 2 hr post administration; assay type: in vivo, PC3 tumor xenograft nude mice; conditions: oral avasimibe 15 mg/kg
Experimental: To measure the bioavailability of avasimibe in tissues, avasimin solution in PBS (75 mg/kg, containing 15 mg/kg avasimibe) was intravenously administered to PC3 tumor xenograft nude mice (n=3) through the tail vein. avasimibe solution in PBS (15 mg/kg) was also orally administered to PC3 tumor xenograft nude mice (n=3). At 2 hr-post injection, the mice were sacrificed, and the tissues and urine were harvested and weighed. After adding PBS (100 μl per […] tissue), the tissues were homogenized using a bead based homogenizer (Precellys®24, bertin technologies). Avasimibe was extracted from the homogenized tissue solution according to the same procedure used in avasimibe extraction from blood sample. Avasimibe in the tissue, urine, and feces specimens was quantified by LC-MS using the same conditions as the blood-bioavailability study. The amounts of avasimibe were quantitatively determined based on the calibration curve of avasimibe in blood.

MIA PaCa-2 cell = test: Transwell cell migration and invasion assays; assay type: cell-based, human
Experimental: as §1

pancreatic cancer cells [9] = test: Fluorescence imaging of DiI labeled LDL uptake; assay type: cell-based, human
Experimental: DiI labeled LDL was made following previously described method (de Smidt P C & van Berkel T J C (1990) Cancer Res 50(23):7476-7482.). Cells were cultured in medium containing 10% lipodeficient serum with or without avasimibe treatment for 2 days. Then DiI-LDL was added to the medium at 50 μg/ml for 3 hours. Fluorescence images were acquired immediately after 3 h incubation using confocal microscope. The LDL uptake was quantified using ImageJ by analyzing the area fraction of uptake LDL particles out of the total cellular area.

PC3 cells = test: Cell viability IC50 in PC3 cells; assay type: cell-based; conditions: Homo sapiens, PC-3
MIA PaCa-2 = test: MTT cell viability, MIA PaCa-2; assay type: cell-based, human
Experimental: as §1

tumors = test: Combination of avasimibe and gemcitabine in mice with tumors; assay type: in vivo; conditions: molar ratio about 5:1 to about 15:1 avasimibe to gemcitabine
[10] = 15 mg/kg per day intraperitoneally, 4 weeks

Chain of HSA (human serum albumin) (P02768 25-609): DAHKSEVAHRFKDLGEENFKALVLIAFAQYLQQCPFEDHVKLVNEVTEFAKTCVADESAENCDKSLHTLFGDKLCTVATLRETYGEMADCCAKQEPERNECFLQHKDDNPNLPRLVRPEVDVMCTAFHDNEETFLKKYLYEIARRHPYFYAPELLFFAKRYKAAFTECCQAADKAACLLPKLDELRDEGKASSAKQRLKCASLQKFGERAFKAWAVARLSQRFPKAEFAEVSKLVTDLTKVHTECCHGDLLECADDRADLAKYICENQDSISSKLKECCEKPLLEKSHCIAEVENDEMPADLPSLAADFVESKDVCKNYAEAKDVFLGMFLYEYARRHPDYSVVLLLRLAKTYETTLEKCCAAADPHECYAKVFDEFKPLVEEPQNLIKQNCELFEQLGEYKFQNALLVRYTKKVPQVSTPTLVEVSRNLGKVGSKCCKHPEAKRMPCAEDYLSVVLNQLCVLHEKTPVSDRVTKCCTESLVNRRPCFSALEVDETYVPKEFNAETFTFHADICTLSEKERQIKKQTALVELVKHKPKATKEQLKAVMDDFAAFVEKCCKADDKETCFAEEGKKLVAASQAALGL

## Nc1ccn([C@@H]2O[C@H](CO)[C@@H](O)C2(F)F)c(=O)n1 [gemcitabine]
[1]
  selectivity of cytotoxic effect: non-selective cytotoxic effects

## CC(C)c1cc(C(C)C)c(CC(=O)NS(=O)(=O)Oc2c(C(C)C)cccc2C(C)C)c(C(C)C)c1 [avasimibe]
[2]; 15 mg/kg per day intraperitoneally
  CE amount in tumor (SRS imaging and Raman): Reduction of CE amount
[2]; [10]
  body weight: did not induce body weight loss
  metastatic lesions in lymph nodes and distant organs: largely suppressed
  tumor size, tumor growth rate, tumor volume and weight: significantly suppressed
[2]; mouse, in vivo
  apoptotic cells in tumor tissues (TUNEL): Increased apoptotic cells
  free cholesterol in mouse pancreatic tumor tissues: Increased free cholesterol
[3]
  ATF4 level: increase of transcription factor ATF4 within 12 hours
  CHOP expression: appeared after 12 hour treatment and increased from 12 to 48 hour
  GRP78 expression level: gradually increased over time
HPDE6
  IC50: 52.8 µM
[4]
  AUC: 3250 ng·h/mL
Pancreatic cancer cells [5]
  CE level in pancreatic cancer cells: effectively removed CE
Pancreatic cancer cells [6]
  free cholesterol levels in cells: gradually increased
MIA PaCa-2 cells
  number of apoptotic cells: largely increased
[7]; avasimibe:HSA 16:1, warfarin:HSA 10:1
  replacement of warfarin at the primary binding site of HSA: complete replacement of warfarin
[7]; inferred from complete replacement of warfarin
  binding affinity to HSA, compared with warfarin: > 189000 M⁻¹
PANC-1; 10 μM
  proliferation rate of PANC-1 cells: significantly reduced the proliferation rate
PANC-1; Homo sapiens, PANC-1
  IC50: 23.6 µM
[8]
  excretion of avasimibe through feces: considerable amount of avasimibe was excreted through the feces
[8]; 2 hr
  avasimibe in the tumor tissue: not detectable
  main tissue of avasimibe distribution: most avasimibe was found in the liver tissue
MIA PaCa-2 cell; transwell with Matrigel, 24 h
  cell invasion rate: significantly reduced
MIA PaCa-2 cell; transwell, 12 h
  cell migration rate: significantly reduced
Pancreatic cancer cells [9]
  uptake of DiI labeled LDL: significantly reduced uptake of LDL
PC3 cells
  IC50: 17 µM
MIA PaCa-2; 10 μM
  proliferation rate of MIA PaCa-2 cells: significantly reduced the proliferation rate
MIA PaCa-2; Homo sapiens, MIA PaCa-2
  IC50: 11 µM
tumors
  effect in combination with gemcitabine: synergistic effect
